Measurements published in US20170143748A1, “ANTI-TUMOR PHARMACEUTICAL APPLICATION OF PENTACYCLIC TRITERPENE SAPONIN COMPOUNDS OF SZECHUAN MELANDIUM ROOT” (priority 2014, published 2017).
Values joined by “and” are separate entries in the source; they are usually repeats but may differ in a detail not shown here. Equal entries are not always repeated. Where two headings read alike, the source gives them in different places.

How the values were obtained:
Format in all cases: cell-based, Human
HepG2 [1] = experiment: MTT inhibition of tumor cells in vitro (Example 3); details: Homo sapiens, HepG2, 48 h, 40 μg/mL, read-out: Inhibition rate, HepG2
HepG2 [2] = experiment: Cell cycle detection (PI flow cytometry)
Method: (§1) Human resources hepatoma cell line HepG2 was provided by Cancer Hospital, Chinese Academy of Medical Sciences. […] Cells were passaged every 2 or 3 days, and all the experiments were carried out on exponentially growing cells.
[…] Cells were blown and centrifuged at 1000 RPM for 5 mins. The supernatant was removed and 1-2 mL cold phosphate-buffered saline was added, blown and centrifuged again. The precipitate was blew and then fixed with −20° C. 70% alcohol (1-2 mL), centrifuged again. Alcohol was removed, and the precipitate was washed two times with phosphate-buffered saline, blown for suspension and filtered through 100 mesh gauze filter to flow detection tube, centrifuged at 1000 RPM for 5 mins. The supernatant was abandoned and cells were stained with PI dye (50 μg/mL), vibrated and stained at least 30 mins in darkness, detected with Flow cytometry.

HepG2 [3] = experiment: Inhibitory activity and IC50 to HepG2 at different time of treatment (MTT, Example 4); details: for IC50 / inhibition at 5 µg/mL / inhibition at 10 µg/mL / inhibition at 20 µg/mL / inhibition at 40 µg/mL / inhibition at 80 µg/mL: Homo sapiens; for IC50: read-out: IC50 to HepG2
Method: as §1
Cells were harvested in good growth status and cell suspension was prepared with 2×10^4 cells/mL, added 100 μL per well of 96-well plates, and cultured for 24 h in the incubator. 100 μL liquid medium with no cell was added per well as blank group.
3 plates were used as parallel test to culture cells at different period.
Before medication, supernatant of each well was removed and fresh 1640 medium was added, 180 μL per well. […] Wells of blank and model groups were added with 0.5% DMSO, 20 μL per well. After finished adding drugs, cells were incubated for 24 and 48 h respectively. At the end of incubation, 20 μL MTT was added per well […]. The supernatant was removed carefully and 150 μL DMSO was added per well. After shaken for 10 mins, the absorbance was read at 490 nm and the inhibition rate was calculated with the formula below.
(§2) Inhibition rate=[(ODmodel−ODblank)−(ODdrugs−ODblank)]/(ODmodel−ODblank)×100%
IC50 was calculated with Bliss method.
(§3) The MTT experiment was repeated three times.

HepG2 [4] = experiment: Detection of apoptosis (Annexin V-FITC/PI flow cytometry); details: HepG2, 80 μg/mL, 24 hours
Method: as §1
Following the incubation of cells in the flasks with drug for 24 hours, cell suspension was harvested with 5×10^5 to 1×10^6 cells/mL, and taken with 1 mL for centrifuging for 10 min at 1000 RPM and 4° C. The supernatant was replaced carefully, added with 1 mL cold phosphate-buffered saline, gently shaken for resuspension, recentrifuged and replaced the supernatant. The cells were resuspended with 200 μl Binding Buffer, added with 10 μl Annexin V-FITC and 5 μl PI, gently shaken and reacted for 15 min at Room temperature, then added with 300 μl Binding Buffer and finally measured immediately with Flow cytometry.

HT29 = experiment: MTT inhibition of tumor cells in vitro (Example 3); details: Homo sapiens, HT-29, 48 h, 40 μg/mL, read-out: Inhibition rate, HT29
Method: (§4) Human resources tumor cell line […], […], HT29, MCF-7 and A875 were provided by Cancer Hospital, Chinese Academy of Medical Sciences.
(§5) Cells were passaged every 2 or 3 days, and all the experiments were carried out on exponentially growing cells.
(§6) All cells were cultured in a humidified atmosphere (5% CO2 and […]), and passaged every 2 or 3 days. Cells were harvested on exponentially growing phase, and cell suspension was prepared with 2×10^4 cells/mL, added with 100 μL per well of 96-well plates, and cultured for 24 h in incubator. 100 μL medium without cells was added per well as blank group.
(§7) Compound (1), (2), (3), (4), (7) or (8) was dissolved in DMSO respectively, and diluted with 1640 medium at a final concentration of 400 μg/mL, so as to that of the Cisplatin. Cells were divided into 9 groups, they were blank group, model group, Compound (1), (2), (3), (4), (7) and (8) groups, and Cisplatin group as the positive one, 6 wells per group.
(§8) Before drug administration, supernatant of each well was removed and fresh 1640 medium was added, 180 μL per well. Compounds and Cisplatin were added with 20 μL per well respectively at a final concentration of 40 μg/mL. Wells of blank and model groups were added with 0.5% DMSO, 20 μL per well. 48 hours later, 20 μL MTT was added per well and continued to culture for 4 hours, then the supernatant was replaced carefully and DMSO was added with 150 μL per well to end the experiment. The 96-well plates were shaken for 10 mins and read the absorbance at 490 nm. The Inhibition rate was calculated.
as §2, §3

BGC823 = experiment: MTT inhibition of tumor cells in vitro (Example 3); details: Homo sapiens, BGC-823, 48 h, 40 μg/mL, read-out: Inhibition rate, BGC823
Method: as §4, §5, §6, §7, §8, §2, §3

A875 = experiment: MTT inhibition of tumor cells in vitro (Example 3); details: Homo sapiens, A875, 40 μg/mL, 48 hours, read-out: Inhibition rate, A875
Method: as §4, §5, §6, §7, §8, §2, §3

MCF-7 = experiment: MTT inhibition of tumor cells in vitro (Example 3); details: Homo sapiens, MCF7, 40 μg/mL, 48 hours, read-out: Inhibition rate, MCF-7
Method: as §4, §5, §6, §7, §8, §2, §3

SMILES: COC(=O)C1CC(O[C@H]2CC[C@]3(C)[C@H]4C=CC5[C@@H]6CC(C)(C)CC[C@]6(C(=O)OC6OC(C)C(OC(=O)/C=C/c7ccc(C)cc7)C(OC(C)=O)C6OC6CC(C)C(O)C(O)C6O)[C@H](O)C[C@@]5(C)[C@]4(C)CC[C@H]3[C@]2(C)C=O)C(OC2OC(CO)C(O)C(O)C2O)C(OC2OCC(O)C(O)C2O)C1O (some centres unmarked) [Compound (2), sinocrassuloside VII]
- inhibition at 40 µg/mL (HepG2 [1]): > 90%
- cells in G0/G1 (HepG2 [2]; 20 μg/mL, 24 h): 67.26%
- cells in G2/M (HepG2 [2]; 20 μg/mL, 24 h): 15.57%
- cells in S (HepG2 [2]; 20 μg/mL, 24 h): 17.22%
- cells in G0/G1 (HepG2 [2]; 20 μg/mL, 48 h): 60.62%
- cells in G2/M (HepG2 [2]; 20 μg/mL, 48 h): 23.27%
- cells in S (HepG2 [2]; 20 μg/mL, 48 h): 16.11%
- cells in G0/G1 (HepG2 [2]; 20 μg/mL, 72 h): 59.77%
- cells in G2/M (HepG2 [2]; 20 μg/mL, 72 h): 13.96%
- cells in S (HepG2 [2]; 20 μg/mL, 72 h): 26.27%
- cells in G0/G1 (HepG2 [2]; 40 μg/mL, 24 h): 52.52%
- cells in G2/M (HepG2 [2]; 40 μg/mL, 24 h): 29.95%
- cells in S (HepG2 [2]; 40 μg/mL, 24 h): 17.53%
- cells in G0/G1 (HepG2 [2]; 40 μg/mL, 48 h): 55.08%
- cells in G2/M (HepG2 [2]; 40 μg/mL, 48 h): 32.64%
- cells in S (HepG2 [2]; 40 μg/mL, 48 h): 12.29%
- cells in G0/G1 (HepG2 [2]; 40 μg/mL, 72 h): 63.09%
- cells in G2/M (HepG2 [2]; 40 μg/mL, 72 h): 20.44%
- cells in S (HepG2 [2]; 40 μg/mL, 72 h): 16.48%
- cells in G0/G1 (HepG2 [2]; 80 μg/mL, 24 h): 55.19%
- cells in G2/M (HepG2 [2]; 80 μg/mL, 24 h): 21.20%
- cells in S (HepG2 [2]; 80 μg/mL, 24 h): 20.39±2.56% and 20.39%
- cells in G0/G1 (HepG2 [2]; 80 μg/mL, 48 h): 47.28%
- cells in G2/M (HepG2 [2]; 80 μg/mL, 48 h): 21.77%
- cells in S (HepG2 [2]; 80 μg/mL, 48 h): 30.95±5.84% and 30.95%
- cells in G0/G1 (HepG2 [2]; 80 μg/mL, 72 h): 49.28%
- cells in G2/M (HepG2 [2]; 80 μg/mL, 72 h): 10.39%
- cells in S (HepG2 [2]; 80 μg/mL, 72 h): 40.34±12.32% and 40.34%
- highest inhibition rate (HepG2 [3]; HepG2, 20-80 μg/mL): above 99%
- IC50 (HepG2 [3]; HepG2, 24 h): 5.25 µM
- inhibition at 5 µg/mL (HepG2 [3]; HepG2, 24 h, read-out: Inhibition Rate, HepG2, 5 μg/ml, 24 h): 13.4 ± 5.76%
- inhibition at 10 µg/mL (HepG2 [3]; HepG2, 24 h, read-out: Inhibition Rate, HepG2, 10 μg/ml, 24 h): > 80%
- inhibition at 20 µg/mL (HepG2 [3]; HepG2, 24 h, read-out: Inhibition Rate, HepG2, 20 μg/ml, 24 h): 92.7 ± 2.43%
- inhibition at 40 µg/mL (HepG2 [3]; HepG2, 24 h, read-out: Inhibition Rate, HepG2, 40 μg/ml, 24 h): 90 ± 2.41%
- inhibition at 80 µg/mL (HepG2 [3]; HepG2, 24 h, read-out: Inhibition Rate, HepG2, 80 μg/ml, 24 h): 94.6 ± 2.59%
- IC50 (HepG2 [3]; HepG2, 48 h): 4.56 µM
- inhibition at 5 µg/mL (HepG2 [3]; HepG2, 48 h, read-out: Inhibition Rate, HepG2, 5 μg/ml, 48 h): 16.6 ± 8%
- inhibition at 10 µg/mL (HepG2 [3]; HepG2, 48 h, read-out: Inhibition Rate, HepG2, 10 μg/ml, 48 h): > 80%
- inhibition at 20 µg/mL (HepG2 [3]; HepG2, 48 h, read-out: Inhibition Rate, HepG2, 20 μg/ml, 48 h): 99.47 ± 0.56%
- inhibition at 40 µg/mL (HepG2 [3]; HepG2, 48 h, read-out: Inhibition Rate, HepG2, 40 μg/ml, 48 h): 98.4 ± 1%
- inhibition at 80 µg/mL (HepG2 [3]; HepG2, 48 h, read-out: Inhibition Rate, HepG2, 80 μg/ml, 48 h): 98.89 ± 0.68%
- early apoptosis signal (HepG2 [4]; control 1.5%): 8.5%
- number of necrotic cells (HepG2 [4]; control 2.0%): 6.6%
- inhibition at 40 µg/mL (HT29): > 90%
- inhibition at 40 µg/mL (BGC823): > 90%
- inhibition at 40 µg/mL (A875): 77.5 ± 9.94%
- inhibition at 40 µg/mL (MCF-7): 91 ± 8.68%
